Assay [1] is described as follows: inhibitors of PAF-induced NFkB signaling in CF airway cells, dose response, cell-based, uHTS hits, panel, cytotoxicity readout (AID 624344). The conditions noted are these: CF bronchial epithelial cells, PAF-induced NFkB reporter inhibition; with PAF, mean of runs.
Another assay relates to Cytotoxicity. Described as above. The conditions noted are these: CF bronchial epithelial cells, mean of runs.

Active and inactive are the calls of the source. The rule behind the calls is not given here.

By IC50 is commonly meant the concentration that gives 50% inhibition.

Consider `COc1ccc(Nc2nc(-c3cccs3)nc3ccccc23)cc1S(=O)(=O)N1CCOCC1`, for which the IC50 in assay [1] was 3.78 µM; in the assay on Cytotoxicity, 8.98 µM.

In the case of `COc1ccc(-c2cn[nH]c2-c2ccc(OCc3ccccc3F)cc2O)cc1OC`, the IC50 in assay [1] was 3.57 µM; with Cytotoxicity, 18 µM.

As for `Nc1nccc(-c2ccc(-n3cnc4ccccc43)cc2)n1`, the IC50 in assay [1] is 2.13 µM; in the assay on Cytotoxicity it was 49.1 µM.

For `C=CC(=O)Nc1cccc(Oc2ncnc3[nH]cc(-c4cnc5ccccc5c4)c23)c1`, the IC50 in assay [1] is 1.35 µM; in the assay with Cytotoxicity, 54.8 µM (inactive).

On to `COc1ccc2[nH]c3c(c2c1)CC(C)NC3=O` (stereo unspecified), for which the IC50 in assay [1] is 1.3 µM; with Cytotoxicity it was 55.3 µM (inactive).

On to `CCCCCCCCCc1nc2sc3c(c2c(=O)n1NC(=O)c1ccc([N+](=O)[O-])cc1)CC(C)(C)OC3`, for which the IC50 was 5.52 µM in assay [1] and 43.8 µM with Cytotoxicity.

Turning to `CCCCCCc1cc2cc(S(=O)(=O)c3ccc(F)cc3)c(=O)oc2cc1O`, the IC50 was 4.48 µM in assay [1] and 4.76 µM in the assay with Cytotoxicity.

Take `C=CCSc1nc2ccccc2n1C(=O)/C=C/c1ccc(OC)c(OC)c1`: the IC50 in assay [1] was 3.46 µM; in the assay on Cytotoxicity it was 62 µM (inactive).

Source of the values: PubChem BioAssay AID624344 (Sanford-Burnham Center for Chemical Genomics, 2012).
